Measurements taken from US20230220047A1, “PEPTIDES FOR TREATMENT OF SEPSIS AND CANCER” (NORWEGIAN UNIVERSITY OF SCIENCE AND TECHNOLOGY (NTNU), priority 2020, published 2023).

Experiments:
[1] = tested on: ANBL-6 multiple myeloma cells; experiment: CellTiter-Glo cell viability assay, ANBL-6; type: cell-based; conditions: for anti-proliferative activity over a concentration series: 5, 10, 12.5, 15, 20 and 30 μM or 5, 10 and 20 μM
[2] = tested on: INA-6 multiple myeloma cells; experiment: CellTiter-Glo cell viability assay, INA-6; type: cell-based, human; conditions: INA-6, 12.5 μM, 48 h
Procedure: Minor effects on the proliferation of the IH-1 and RPMI 8226 cell lines are seen. Cells were seeded at the level shown (left-hand bar of each set) then incubated in medium containing water, 10 μM penetratin or 10 μM P7-A4-Pen for 48 hr (except for INA-6 cells, which were incubated with 12.5 μM penetratin or 12.5 μM P7-A4-Pen). The number of viable cells was detected based on quantitation of ATP by luminescent signal in correlation to a standard curve prepared for each cell line. Results are based on 3-5 biological replicates for each condition, error bars show standard deviation of mean.
Multiple myeloma cells JJN-3 (DSMZ (Germany) no. ACC 541), ANBL-6 (Cellosaurus accession number CVCL_5425, obtained from Dr Diane Jelinek, Mayo Clinic, Rochester, Minn.), INA-6 (Cellosaurus accession number CVCL_5209, obtained from Dr M. Gramatzki, University of Erlangen-Nurnberg, Erlangen, Germany), RPMI-8226 (ATCC CCL-155), and IH-1 (Cellosaurus accession number CVCL_WZ44, established from the pleural effusion of a myeloma patient by Myeloma research group, IKOM, NTNU, Trondheim, Norway) were grown in RPMI-1640 (Sigma-Aldrich Norway, Oslo, Norway) supplemented with 100 nM penicillin/streptomycin and 10% FCS, and for ANBL-6, IH-1 and INA-6 cells 2 ng/ml recombinant IL-6 (Gibco, Thermo Fisher Scientific, Waltham, Mass., USA). […]

[3] = tested on: primary Vk*MYC multiple myeloma cells; experiment: Primary Vk*MYC multiple myeloma cells; type: cell-based, mouse; conditions: 7.5 or 15 μM, 48 h
Procedure: Isolated primary cells were seeded then incubated for 48 hours in growth medium supplemented with water, penetratin, P7-Pen, P7-A4-Pen or P7-N4-Pen, then counted. Peptides were included at concentrations of 7.5 or 15 μM. […] Results are based on 3 biological replicates, error bars show standard deviation of mean.
Multiple myeloma cells JJN-3 (DSMZ (Germany) no. ACC 541), ANBL-6 (Cellosaurus accession number CVCL_5425, obtained from Dr Diane Jelinek, Mayo Clinic, Rochester, Minn.), INA-6 (Cellosaurus accession number CVCL_5209, obtained from Dr M. Gramatzki, University of Erlangen-Nurnberg, Erlangen, Germany), RPMI-8226 (ATCC CCL-155), and IH-1 (Cellosaurus accession number CVCL_WZ44, established from the pleural effusion of a myeloma patient by Myeloma research group, IKOM, NTNU, Trondheim, Norway) were grown in RPMI-1640 (Sigma-Aldrich Norway, Oslo, Norway) supplemented with 100 nM penicillin/streptomycin and 10% FCS, and for ANBL-6, IH-1 and INA-6 cells 2 ng/ml recombinant IL-6 (Gibco, Thermo Fisher Scientific, Waltham, Mass., USA). Murine multiple myeloma Vk*MYC cells were obtained from M.D. Leif Bergsagel (Mayo Clinic, Richester, Minn., USA) and cultured in RPMI-1640 supplemented with 2% human serum (B^+, The blood bank, St Olav's Hospital, Trondheim, Norway), 100 nM penicillin/streptomycin, L-Glutamine (2 mM) and recombinant IL-6 (1 ng/ml). HEK293T (ATCC CRL-3216) were cultured in DMEM with 10% FCS. THP-1 TRAM knockout (KO) and TLR4 KO cell lines, and matching lentivirally transduced control cell lines, were differentiated in the same way as wild type (WT) THP-1. TRAM KO THP-1 cell line is described in Yurchenko et al. (supra).
Primary multiple myeloma cells were isolated from Vk*Myc mice and provided by the Multiple Myeloma Research Group, IKOM, NTNU. The peptides P7-Pen, P7-N4-Pen and P7-A4-Pen were applied to the cultured primary cells and effect of the peptides on cell growth analysed as previously.

TLR4 = experiment: Whole blood assay, LPS stimulation; type: cell-based, human
From the text: […] Results are for at least 6 donors. The Wilcoxon matched-pairs signed rank test was used for statistical analysis between 2 groups in Prizm 8.2.1. In each graph, circles indicate whole blood pre-treated with water, squares indicate blood pre-treated with control peptide (average for treatment with Pen and C3-Pen), and triangles indicate pre-treatment with P7-Pen.
To evaluate the effect of peptides in an ex vivo system, a human whole blood model was used. Peripheral venous blood was drawn from 6 healthy donors into sterile polypropylene tubes (Thermo Scientific™ Nunc™ Biobanking and Cell Culture Cryogenic Tubes) containing the anti-coagulant Lepirudin (Refludan®; Celgene). […] Peptide solution or DPBS was distributed in equal volume (50 μL) to 1.8 mL sterile polypropylene tubes (Thermo Scientific™Nunc™ Biobanking and Cell Culture Cryogenic Tubes). […] Stimulation solutions were made by diluting K12 LPS or CL075 in DPBS to obtain a final concentration in whole blood of 100 ng/mL (LPS) or 1 μg/mL (CL075) after addition of 50 μL stimulation solution or DPBS. […] Tubes were incubated at 37° C. under constant rotation for 4 h. Finally, plasma was isolated from the whole blood specimens by centrifugation, collected in 96 well plates (Corning® 96 Well CellBIND® Microplates), and stored at −20/−80° C. until analysis by multiplex/27-plex cytokine assay or IFNβ ELISA (VeriKine-HS Human Interferon Beta Serum ELISA Kit; pbl Assay Science).

Row | Substance | effect on proliferation of ANBL-6 cells ([1]; 15 μM) | anti-proliferative activity over a concentration series ([1]; 48 h) | cell proliferation ([1]; ANBL-6, 10 μM, 48 h) | cytotoxic activity (cell numbers below number seeded) ([1]; higher concentrations, 48 h) | cell proliferation [2] | effect on primary multiple myeloma cells [3] | TLR4-mediated IFNβ release by whole blood cells (TLR4; 20 μM, LPS 100 ng/ml 4 h) | LPS/TLR4-induced TNF, IL-6 and IL-1β secretion (TLR4; 20 μM, compared to control peptides) | LPS-mediated IFNβ secretion by whole blood cells (TLR4; pilot assay, 10 μM, LPS 100 ng/ml)
1 | Ac-ITVAASVTLTGRQIKIWFQNRRMKWKK-NH2 [Peptide P7-A4-Pen] | anti-proliferative effect | clear concentration-dependent effect | strongly inhibited cell proliferation | cytotoxic activity | strongly inhibited cell proliferation | strong cytotoxic effect | – | – | –
2 | Ac-ITVYASVTLTGRQIKIWFQNRRMKWKK-NH2 [Peptide P7-Pen] | – | essentially no anti-proliferative effect | – | – | – | strong cytotoxic effect | effectively abrogated | significant reduction | –
3 | Ac-ITVYASVTLTGRRRRRRRRRRR-NH2 [Peptide P7-Arg11] | – | – | – | – | – | – | – | – | inhibited
